Experimental data reported in patent publication US20060160906A1, “Polyamine analogs as therapeutic agents for ocular diseases” (priority 2004, published 2006).
Entries after “also recorded” stand apart in the source; their conditions may differ.

Tests used:
[1] = tested on: choroidal neovascularization (CNV) at Bruch's membrane rupture sites; test: Mouse model of laser-induced choroidal neovascularization (rupture of Bruch's membrane), CNV area on choroidal flat mounts; format: in vivo, C57BL/6J mice; settings: for amount of established CNV on day 14 vs vehicle and day 7 baseline (regression): single periocular injection at day 7; for amount of CNV on day 14 vs vehicle (suppression): single periocular injection at time of rupture
[2] = tested on: subretinal neovascularization; test: Rhodopsin/VEGF transgenic mice, subretinal neovascularization; format: in vivo, rhodopsin/VEGF transgenic mice (V6 mice); settings: periocular injection at P7, measured P21; 100 μg CGC-11144, 1 mg CGC-11047, 750 μg CGC-11093
Source text: Transgenic mice (V6 mice) in which the rhodopsin promoter drives expression of VEGF165 in photoreceptors have onset of VEGF expression at post-natal day 7 (P7) and soon after begin to develop neovascularization originating from the deep capillary bed that grows through the photoreceptor layer into the subretinal space. (Okamoto N et al., Amer. J. Pathol. 151: 281-91 (1997); Tobe T et al., Invest. Ophthalmol. Vis. Sci. 39: 180-188 (1998)). Hemizygous transgene positive mice were given a periocular injection of 100 μg of CGC-11144 (n=3), 1 mg of CGC-11047 (n=3), 750 μg of CGC-11093 (n=3) or vehicle (n=7) at P7. At post-natal day 21 (P21), mice were euthanized and the amount of subretinal neovascularization was quantified as previously described (Tobe, ibid.). Briefly, mice were anesthetized, perfused with fluorescein-labeled dextran, and the number of neovascular lesions on the outer surface of the retina and their total area were measured on retinal flat mounts by image analysis as described in Example 1.

[3] = tested on: retinal neovascularization; test: Oxygen-induced ischemic retinopathy, retinal neovascularization; format: in vivo, neonatal C57BL/6 mice; settings: 100 μg CGC-11144, 1 mg CGC-11047, 750 μg CGC-11093; for amount of retinal neovascularization at P20 vs vehicle (regression): daily periocular injections P17 to P20; for amount of retinal neovascularization at P17 vs vehicle (suppression): periocular injection at P12
Procedure: Ischemic retinopathy can be produced in neonatal C57BL/6 mice as described (Smith, L. E et al., Invest. Opthalmol. Vis. Sci. 35: 101-111 (1994)) and serves as a model for retinopathy of prematurity (ROP). Post-natal day 7 (P7) mice and their mothers were placed in an airtight incubator and exposed to an atmosphere of 75±3% oxygen for 5 days. Incubator temperature was maintained at 23±2° C. and oxygen was continuously monitored with a PROOX model 110 oxygen controller (Reming Bioinstruments Co., Redfield, N.Y.). At post-natal day 12, mice were placed back in room air and were given a periocular injection of 3 μl containing 100 μg of CGC-11144 (n=4), 1 mg of CGC-11047 (n=4), 750 μg of CGC-11093 (n=4) or vehicle. On post-natal day 17 (P17) the treated and control mice were euthanized and the amount of retinal neovascularization was measured.
For measurement of retinal neovascularization, eyes were removed and fixed in 2% paraformaldehyde in phosphate buffered saline (PBS) for one hour and rinsed twice in 25% sucrose in PBS. Specimens were incubated in 25% sucrose in PBS overnight and embedded in OCT compound (Miles Diagnostics, Elkhart, Ind.),). 10 μm frozen sections were post-fixed for 15 minutes in 0.5% glutaraldehyde in PBS and washed in PBS. Sections were also histochemically stained with biotinylated Griffonia simplicifolia lectin B4 (GSA, Vector Laboratories, Burlingame, Calif.), which selectively binds to vascular cells. Slides were incubated in methanol/H2O2 for 10 minutes at 4° C., washed with 0.05 M Tris-buffered saline, pH 7.6 (TBS), and incubated for 30 minutes in 10% normal porcine serum. Slides were incubated 2 hours at room temperature with biotinylated GSA and after rinsing with 0.05M TBS, they were incubated with avidin coupled to peroxidase (Vector Laboratories, Burlingame, Calif.) for 30 minutes at room temperature. After being washed for 10 minutes with 0.05M TBS, slides were incubated with diaminobenzidine (Research Genetics, Huntsville, Ala.) to give a brown reaction product.
To perform quantitative assessments, 10 μm frozen serial sections were cut from the iris root on one side of the eye to the iris root on the opposite side of the eye and every tenth section was stained with GSA. Retinas were examined with an Axioskop microscope and images were digitized using a 3 CCD color video camera and a frame grabber. Image-Pro Plus software was used to delineate GSA-stained vascular cells above the internal limiting membrane and the total area of staining was measured.
To investigate the effect of these agents on regression of retinal neovascularization, ischemic retinopathy was induced and left untreated until P17, when the baseline amount of retinal neovascularization was measured in one group of mice. From post-natal days 17 to 20 (P17 to P20) the remainder of the mice were given daily periocular injections of 100 μg of CGC-11144 (n=4), 1 mg of CGC-11047 (n=4), 750 μg of CGC-11093 (n=4) or vehicle. On P20 the mice were euthanized and the amount of retinal neovascularization in the treated and control mice was measured as described above.

[4] = 2 mg CGC-11047, 1.5 mg CGC-11093
[5] = 200 μg CGC-11144, 2 mg CGC-11047, 1.5 mg CGC-11093
[6] = single periocular injection one week prior to rupture, 200 μg CGC-11144, 2 mg CGC-11047, 1.5 mg CGC-11093
[7] = single periocular injection three weeks before laser, 2 mg CGC-11047, 1.5 mg CGC-11093
[8] = single periocular injection two weeks prior to rupture, 200 μg CGC-11144, 2 mg CGC-11047, 1.5 mg CGC-11093

Row | Structure (SMILES) | area of CNV vs day 7 baseline and vehicle fellow eyes (regression) ([1]; daily periocular injections days 7 to 14, 200 μg CGC-11144, 100 μg DFMO, or both) | subretinal neovascularization vs vehicle [2] | amount of established CNV on day 14 vs vehicle and day 7 baseline (regression) [1, 4] | amount of CNV on day 14 vs vehicle (suppression) [1, 5] | amount of CNV vs vehicle (duration of effect) [1, 6] | amount of CNV vs vehicle (duration of effect) [1, 7] | amount of CNV vs vehicle (duration of effect) [1, 8] | amount of retinal neovascularization at P20 vs vehicle (regression) [3] | amount of retinal neovascularization at P17 vs vehicle (suppression) [3]
1 | NCCCC(N)(C(=O)O)C(F)F (racemic) [DFMO, D,L-α-difluoromethyl-omithine, reference compound] | significant reduction in the area of CNV; also recorded: significantly less |  |  |  |  |  |  |  | 
2 | CCNCCCNC/C=C\CNCCCNCC [CGC-11047] |  | significantly less subretinal neovascularization | less CNV than those treated with vehicle and less than the baseline amount of CNV | significantly reduced the amount of CNV | significant reduction of the amount of CNV | no significant effect | significantly smaller amounts of CNV | significantly less neovascularization | significantly less
3 | CCNCCCCNCC1CC1CNCCCCNCC (centres unmarked) [CGC-11093] |  | significantly less subretinal neovascularization | less CNV than those treated with vehicle and less than the baseline amount of CNV | significantly reduced the amount of CNV | significant reduction of the amount of CNV | no significant effect | significantly smaller amounts of CNV | significantly less neovascularization | significantly less
